The source of these data is ChEMBL document CHEMBL5230110, “FabI (enoyl acyl carrier protein reductase) - A potential broad spectrum therapeutic target and its inhibitors” (Eur J Med Chem, 2020).

Assay [1] relates to Mycobacterium tuberculosis. Kind of assay: Antimycobacterial activity against Mycobacterium tuberculosis H37Rv. It is filed as functional.
Assay [2] has as its system Staphylococcus aureus. In words: Antibacterial activity against Methicillin-resistant Staphylococcus aureus ATCC 33592 assessed as bacterial growth inhibition measured after 24 hrs by broth dilution method. It is filed as functional. On the technique in general: Dilution methods test growth across graded concentrations, often in twofold steps.
A short description of assay [3]: Inhibition of Francisella tularensis FabI by addition of crotonyl-CoA as substrate preincubated for 10 mins followed by substrate addition in presence of NAD by spectrophotometer.
In assay [4] the test system is Staphylococcus aureus. In words: Antibacterial activity against Staphylococcus aureus ATCC 29213 assessed as bacterial growth inhibition incubated for 24 hrs by broth dilution method. It is filed as functional.
Assay [5] relates to Mycobacterium tuberculosis. Kind of assay: Antimycobacterial activity against Mycobacterium tuberculosis H37Rv assessed as reduction in bacterial growth incubated for 7 days by dye based assay. It is filed as functional. The conditions noted are these: 168 h, time 7 day.
Assay [6] relates to Staphylococcus aureus. Kind of assay: Antibacterial activity against quinolone-resistant Staphylococcus aureus. It is filed as functional.
In assay [7] the target is T1, Enoyl-[acyl-carrier-protein] reductase [NADPH] FabI (Staphylococcus aureus, UniProt Q6GI75).
T1 sequence (Q6GI75 whole entry): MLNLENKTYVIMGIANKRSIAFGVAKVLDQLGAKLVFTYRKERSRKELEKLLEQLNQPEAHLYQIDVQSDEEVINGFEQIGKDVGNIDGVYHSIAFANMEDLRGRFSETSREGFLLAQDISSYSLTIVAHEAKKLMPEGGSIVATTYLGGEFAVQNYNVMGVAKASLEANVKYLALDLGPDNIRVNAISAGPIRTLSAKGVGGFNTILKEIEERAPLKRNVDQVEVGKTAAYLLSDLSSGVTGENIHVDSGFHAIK
Kind of assay: Inhibition of Staphylococcus aureus ATCC 29213 FabI in the presence of NADH using crotonyl CoA as substrate by measuring NADH consumption rate.

Assay [8] relates to Staphylococcus aureus. Kind of assay: Antibacterial activity against Methicillin-resistant Staphylococcus aureus N315 assessed as reduction in bacterial growth. It is filed as functional.
In assay [9] the target is T1, Enoyl-[acyl-carrier-protein] reductase [NADPH] FabI. In words: Inhibition of Staphylococcus aureus FabI in the presence of NADH using crotonyl CoA as substrate by measuring NADH consumption rate.
A further assay deals with HeLa. In words: Cytotoxicity against human HeLa cells assessed as inhibition of cell growth incubated for 48 hrs by CCK8 assay. It is filed as functional, cell-based. (Formazan colour is commonly taken as a measure of viable cells.)
Another assay concerns Bacillus anthracis. In words: Antibacterial activity against Bacillus anthracis assessed as reduction in bacterial growth measured after 24 hrs by broth microdilution method. It is filed as functional.
A short description of assay [10]: Inhibition of Bacillus anthracis enoyl ACP reductase assessed as inhibition of bacterial growth.
Assay [11] relates to Staphylococcus aureus. In words: Antibacterial activity against methicillin-sensitive Staphylococcus aureus assessed as reduction in bacterial growth incubated for 12 hrs by microdilution method. It is filed as functional.
Assay [12] in a line: Cytotoxicity against mouse MH-S cells. It is filed as functional, cell-based.
In assay [13] the test system is Staphylococcus aureus. In words: Bactericidal activity against methicillin-resistant Staphylococcus aureus measured after 24 hrs by sub-culturing. It is filed as functional.
The test system of assay [14] is Staphylococcus aureus. Kind of assay: Antibacterial activity against methicillin resistant Staphylococcus aureus assessed as reduction in bacterial growth incubated for 12 hrs by microdilution method. It is filed as functional.
Assay [15] concerns Escherichia coli. In words: Antibacterial activity against Escherichia coli ATCC 8730 assessed as inhibition of bacterial growth. It is filed as functional.
The test system of another assay is Vibrio cholerae. Kind of assay: Antibacterial activity against Vibrio cholerae. It is filed as functional.
The subject of a further assay is Bacillus subtilis. In words: Antibacterial activity against Bacillus subtilis ATCC 60511 assessed as reduction in bacterial growth at 25 ug/ml measured after 24 hrs serial dilution method. It is filed as functional. The conditions noted are these: dose 25 µg/ml.
Assay [16] has as its system Staphylococcus aureus. In words: Antibacterial activity against Staphylococcus aureus ATCC 11632 assessed as reduction in bacterial growth at 25 ug/ml measured after 24 hrs serial dilution method. It is filed as functional. To be noted: dose 25 µg/ml.
Assay [17] relates to Staphylococcus aureus. In words: Antibacterial activity against Methicillin-sensitive Staphylococcus aureus ATCC 4330 assessed as reduction in bacterial growth. It is filed as functional.
Assay [18] has as its system Staphylococcus aureus. In words: Antibacterial activity against methicillin-resistant Staphylococcus aureus ATCC 4330 assessed as reduction in bacterial growth. It is filed as functional.
Assay [19] is described as follows: Inhibition of Pseudomonas fluorescens FabG assessed as inhibition.
Assay [20] is described as follows: Inhibition of Pseudomonas fluorescens FabI assessed as inhibition.
A short description of assay [21]: Inhibition of Plasmodium falciparum NF54 HDAC using extract measured after 60 mins by fluorescence assay.
The target of assay [22] is T2, Enoyl-[acyl-carrier-protein] reductase [NADH] FabI (Escherichia coli K-12, UniProt P0AEK4).
T2 sequence (P0AEK4 whole entry): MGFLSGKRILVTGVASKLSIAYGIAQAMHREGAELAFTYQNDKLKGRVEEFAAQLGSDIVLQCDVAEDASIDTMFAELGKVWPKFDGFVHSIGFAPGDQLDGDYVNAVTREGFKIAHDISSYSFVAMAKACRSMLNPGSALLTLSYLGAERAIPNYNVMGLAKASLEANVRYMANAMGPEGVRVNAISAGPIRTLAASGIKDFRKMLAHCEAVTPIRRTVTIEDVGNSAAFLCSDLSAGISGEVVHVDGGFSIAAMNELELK
In words: Inhibition of Escherichia coli FabI in the presence of NADH using crotonyl CoA as substrate by measuring NADH consumption rate.

For assay [23], the system named is Escherichia coli. Kind of assay: Antibacterial activity against Escherichia coli assessed as bacterial growth inhibition at 50 uM measured after 24 hrs by 96-wellplate reader assay method. It is filed as functional.
In another assay the test system is Moraxella catarrhalis. In words: Antibacterial activity against Moraxella catarrhalis assessed as inhibition in bacterial growth measured after 24 hrs by broth microdilution method. It is filed as functional.
Assay [24] deals with Staphylococcus aureus. In words: Antibacterial activity against Staphylococcus aureus assessed as inhibition of bacterial growth measured after 24 hrs. It is filed as functional.

Values after ≈ are worked out from the molar mass of the structure shown.

The MIC is the smallest concentration in the dilution series that meets the test's criterion for growth inhibition. On to `COc1nc2ccc(C)cc2cc1/C=N/NC(=O)c1ccc(-n2cccc2)cc1`, for which, in assay [1], inhibition of growth (MIC) required 1.6 µg/mL (≈ 4.16 µM).

For orientation: IC50 means the concentration needed to halve the response being measured. Take `COc1ccc(Cn2cnc3cc4c(cc32)CCC4)cc1C`: the minimum inhibitory concentration (MIC) in the assay with Staphylococcus aureus [2] and in the assay on Staphylococcus aureus [4] was over 12.5 µg/mL in each case. In addition, the 50% inhibitory concentration (IC50) in [3] was 5 nM.

Take `Cc1csc(C(C)(O)c2nnc(Nc3ccn(Cc4c(F)cccc4F)n3)s2)n1` (configuration not stated): the MIC in assay [5] amounted to 0.2 µM (≈ 0.0869 µg/mL).

`CC(c1ccc(Cl)c(Cl)c1)n1cnc2cc3c(cc21)CCCC3` (configuration not stated): the MIC in the assay on Staphylococcus aureus [2] and with Staphylococcus aureus [4] was 3.1 µg/mL (≈ 8.98 µM) each time. Further, the IC50 in assay [3] was determined as 14 nM.

As to `CN1C(=O)[C@@H](c2cc(Cl)c(O)c(Cl)c2)NC(=O)[C@@H]2NC(=O)[C@@H](c3cc(Cl)c(O)c(Cl)c3)NC(=O)[C@H](NC(=O)C(=O)c3cc(Cl)c(O)c(Cl)c3)Cc3c[nH]c4c(cccc34)-c3cc2cc(c3O)Oc2ccc(cc2)C[C@H]1C(=O)N[C@@H](C(=O)O)c1ccc(O)cc1` [CHLOROPEPTIN], it took 4 µg/mL (≈ 3.01 µM) to inhibit growth in the assay with Staphylococcus aureus [6] (MIC). Moreover, the IC50 in assay [7] was found to be 300 nM.

In the case of `Cc1ccc(Oc2coc(COc3ccccc3)cc2=O)c(C)c1`, the MIC in the assay on Staphylococcus aureus [8] came to 1.56 µg/mL (≈ 4.85 µM). In assay [9], the IC50 came to 380000 nM.

The term EC50 denotes the concentration needed to bring the measured effect to its halfway point. What is called MBC is the lowest tested concentration that kills the bacteria rather than only halting them. Consider `O=[N+]([O-])c1ccc(Oc2ccc(Cl)cc2O)c(Cl)c1`, for which the half-maximal effective concentration (EC50) in the assay on HeLa turned out to be 29.3 µg/mL (≈ 97.6 µM); in assay [12], 9.9 µg/mL (≈ 33 µM). For the same compound, the MIC in the assay on Bacillus anthracis is under 0.1 µg/mL; in the assay with Staphylococcus aureus [11], 0.1 µg/mL (≈ 0.333 µM); in the assay with Staphylococcus aureus [14] it was 0.3 µg/mL (≈ 1 µM). For the same compound, the concentration for half-maximal inhibition (IC50) in assay [10] was 300 nM. The compound also showed a minimal bactericidal concentration (MBC) in the assay with Staphylococcus aureus [13] of 0.5 µg/mL (≈ 1.67 µM).

Consider `O=C(NN1C(=O)CC1c1cc2cc(Br)ccc2nc1Cl)c1ccncc1` (configuration not stated), for which the minimal inhibitory concentration (MIC) was found to be 0.4 µg/mL (≈ 0.927 µM) in the assay on Escherichia coli [15], 0.4 µg/mL (≈ 0.927 µM) in the assay with Vibrio cholerae, 12.5 µg/mL (≈ 29 µM) with Bacillus subtilis and 12.5 µg/mL (≈ 29 µM) in the assay on Staphylococcus aureus [16].

Regarding `Cc1c(CN(C)C(=O)/C=C/c2cnc3c(c2)C(C)(C)C(=O)N3)oc2ccccc12`, the MIC in the assay with Staphylococcus aureus [17] and in the assay on Staphylococcus aureus [18] was 0.015 µg/mL (≈ 0.0385 µM) in each case.

Consider `CC(=O)c1cc2c(=O)c3c(C(=O)O)c(O)c(O)cc3oc2c(C(C)=O)c1-c1coc2cc(O)c(O)c(C(=O)O)c2c1=O` [VINAXANTHONE], for which the IC50 in assay [7] was found to be 900 nM.

In the case of `C=C1C(=O)OC[C@H]1C(O)/C=C(\C)CC(=O)C=C(C)C` (some centres not stated), the IC50 in assay [19] was determined as 75 µg/mL (≈ 284 µM); in [20], 20 µg/mL (≈ 75.7 µM); in assay [21] it was 20 µg/mL (≈ 75.7 µM).

Turning to `Cc1cc(Cl)ccc1Oc1coc(/C=C/c2ccc[nH]2)cc1=O`, the IC50 in assay [22] amounted to 140 nM.

For the compound `Oc1ccccc1Oc1ccccc1`, in the assay with Escherichia coli [23], the MIC is 3.7 µg/mL (≈ 19.9 µM).

As to `Cc1cc(Cl)ccc1Oc1c[nH]c(COc2ccccc2)cc1=O`, the IC50 in [22] stood at 400 nM.

Consider `COc1nc2ccc(Br)cc2cc1C1CC(=O)N1NC(=O)c1ccncc1` (configuration not stated), for which the minimum inhibitory concentration (MIC) with Escherichia coli [15] stood at 0.4 µg/mL (≈ 0.936 µM); in the assay with Vibrio cholerae, 0.4 µg/mL (≈ 0.936 µM); with Bacillus subtilis it was 3.12 µg/mL (≈ 7.31 µM); in the assay with Staphylococcus aureus [16], 3.12 µg/mL (≈ 7.31 µM).

As to `Cc1ccc(C(=O)N2CCc3c(n(Cc4ccc(O)cc4)c4ccccc34)C2)c(O)c1`, the minimum inhibitory concentration (MIC) is 4 µg/mL (≈ 9.7 µM) in the assay with Moraxella catarrhalis and 1 µg/mL (≈ 2.42 µM) in the assay on Staphylococcus aureus [24].

In turn, `CN1C(=O)[C@@H](c2cc(Cl)c(O)c(Cl)c2)NC(=O)[C@@H]2NC(=O)[C@@H](c3cc(Cl)c(O)c(Cl)c3)NC(=O)[C@H](NC(=O)C(=O)c3cc(Cl)c(O)c(Cl)c3)Cc3cc4ccc(cc4[nH]3)-c3cc2cc(c3O)Oc2ccc(cc2)C[C@H]1C(=O)N[C@@H](C(=O)O)c1ccc(O)cc1` registered a minimal inhibitory concentration (MIC) against Staphylococcus aureus [6] of 2 µg/mL (≈ 1.51 µM). Further, the concentration for half-maximal inhibition (IC50) in assay [7] is 500 nM.

With `O=C(c1ccc(Cl)cc1O)N1CCc2c(n(Cc3ccc(O)cc3)c3ccccc23)C1`, the MIC in the assay on Moraxella catarrhalis came out at 2 µg/mL (≈ 4.62 µM); in the assay with Staphylococcus aureus [24] it was 1 µg/mL (≈ 2.31 µM).

On to `COc1ccc(-c2cn(Cc3ccc(C)cc3)cn2)cc1`, for which the IC50 in assay [22] was determined as 6440 nM; in [9], 250 nM.

On to `Oc1cc(F)ccc1Oc1ccccc1`, for which, in the assay on Escherichia coli [23], the MIC was 0.6 µg/mL (≈ 2.94 µM).

As usually defined, the MIC90 is the lowest concentration that inhibits either 90% of growth or 90% of the strains tested, depending on the study. For the compound `Cc1c(N)cccc1Cn1ccc(OCCc2cccs2)cc1=O` [CG-400549], the minimum inhibitory concentration (MIC) with Staphylococcus aureus [2] is 0.25 µg/mL (≈ 0.734 µM). Besides, the MIC90 in the assay with Staphylococcus aureus [8] turned out to be 0.25 µg/mL (≈ 0.734 µM).
